Data from patent US20060183794A1, “Drug composition containing nf-kb inhibitor” (priority 2002, published 2006).

Tests used:
[1] = tested on: ICAM-1, VCAM-1, and E-selectin; test: Western blot of adhesion molecule expression in TNF-α-stimulated HUVECs; assay type: cell-based, human; details: HUVECs pretreated with DHMEQ for 2 hours, 10 ng/ml TNF-α
Method: The protein concentration of this supernatant was determined by a liquid of Coomassie Brilliant Blue (Bio-Rad), and concentration was adjusted. Subsequently, 3×SDS loading buffer (150 mM Tris-HCl: pH 6.8, 30% glycerol, 3% SDS (Kanto Kagaku), 0.03 mg/ml bromophenol blue, 150 μl/ml 2-mercaptoethanol (Kanto Kagaku)) was added at a volume equal to half the volume of the lysis buffer that had been added, followed by boiling for 5 min. Using this as a sample, electrophoresis was performed in a 12.5% polyacrylamide gel. After the electrophoresis, the proteins in the gel were transferred to a PVDF membrane (Amersham) and blocked with TBS buffer (20 mM Tris-HCl: pH7.6, 137 mM NaCl) containing 5% skim milk (Snow Brand). Subsequently, the proteins were reacted with the PVDF membrane using antibodies to ICAM-1 (Santa Cruz), VCAM-1 (Santa Cruz), and E-selectin (Santa Cruz), followed by reactions with secondary antibodies (the secondary antibodies to ICAM-1, VCAM-1, and E-selectin (Amersham and Santa Cruz)) suitable to each primary antibody. Further, color was developed by the ECL method, followed by exposure to a film.

[2] = tested on: adhesion of leukocytes and HL-60 cells to HUVECs; test: Adhesion of leukocytes and HL-60 cells to TNF-α-stimulated HUVECs; assay type: cell-based, human; details: DHMEQ 3 μg/ml; TNF-α stimulation 3, 6, 9 hours
Method: HUVECs were plated 24 well plates and confluently cultured. The culture medium was composed of 9.8 g/l medium 199 (provided from Nissui), 1.8 g/l NaHCO3 (Wako), 10 ml/l 1M Hepes buffer (Sigma), 30 mg/l ECGS (Becton Dickinson), 6 ml/l heparin sodium injection (Takeda Pharmaceutical), and 10% heat-inactivated FBS (JRH). Subsequently, the following experiments were conducted. […] In this experiment, mononuclear cells isolated by the specific gravity centrifugation method were used as leukocytes.
After stimulation with TNF-α, the wells were washed twice with HBSS+ (provided from Nissui) and the culture medium was changed to 500 μl of a fresh medium composed of 9.8 g/l medium 199 (provided from Nissui), 1.8 g/l NaHCO3 (Wako), 10 ml/l 1M Hepes buffer (Sigma), 30 mg/l ECGS (Becton Dickinson), 6 ml/l heparin sodium injection (Takeda Pharmaceutical), and 10% heat-inactivated FBS (JRH). Leukocytes and HL-60 cells were placed in wells at 2×10^5 cells/well and 7×10^4 cells/well, respectively. […] That state was photographed and the number of cells adhered to HUVECs was counted.

[3] = tested on: K562 (myelocytic leukemia cell line); test: MTT assay, proliferation of control cell line K562; assay type: cell-based
Method: (§1) Cells from the ATL cell lines (MT-1 and TL-Om1) and a control cell line (K562) were plated in 96-well plates at 1×10^5 cells/well and DHM2EQ was added at the desired final concentrations (2, 5, and 10 μg/ml). Cells to which the solvent DMSO had been added in equal volume (0 μg/ml) were used as […] incubation for 72 hours, cell viability was judged by the MTT assay. Relative MTT values were obtained as the ratio of the MMT values of DHM2EQ-treated cells to those of DHM2EQ-untreated cells, i.e., (MTT values of DHM2EQ-treated cells/MTT values of DHM2EQ-untreated cells)×100(%).
DHM2EQ was added to the ATL cell lines (MT-1 and TL-Om1) and a control cell line (K562) at a final concentration of 10 μg/ml and the cells were incubated for 12, 24, 48, and 72 hours. The proliferation-inhibitory effect was examined by the MTT assay. Cells to which the solvent DMSO had been added in equal volume were used as controls. Relative MTT values were obtained in the same manner as the aforementioned (1).
Time-course analysis and concentration dependence analysis of the inhibitory effect of DHM2EQ on proliferation of Hodgkin's lymphoma cells were performed in the same manner as in Example 2. As Hodgkin's lymphoma cells, the Hodgkin's lymphoma cell lines KMH-2 and L-540 were used.

[4] = tested on: ATL cell lines (MT-1 and TL-Om1); test: Hoechst staining apoptosis assay, ATL cell lines; assay type: cell-based, human; details: 10 μg/ml, 72 hours
Method: DHM2EQ was added to the ATL cell lines (MT-1 and TL-Om1) and a control cell line (K562) at a final concentration of 10 μg/ml, followed by incubation for 72 hours. Subsequently, apoptosis was examined by observing nuclear […] or fragmentation on Hoechst staining with a fluorescence microscope. Cells to which the solvent DMSO had been added in equal volume were also examined in the same manner.

[5] = tested on: multiple myeloma cell line 196TIB; test: MTT assay, proliferation of multiple myeloma cell line 196TIB; assay type: cell-based
Method: as §1
Concentration dependence analysis of the inhibitory effect of DHM2EQ on proliferation of multiple myeloma cells was performed in the same manner as in Example 2. As multiple myeloma cells, the multiple myeloma cell line 196TIB was used.

[6] = tested on: MM cell lines, KMM1, RPMI8226, and U266; test: Apoptosis of multiple myeloma cell lines (Annexin-V, Hoechst staining); assay type: cell-based
Method: Further, to investigate apoptosis induction of MM cell lines by DHMEQ, the MM cell lines, KMM1, RPMI8226, and U266, were incubated for 0, 24, and 48 hours at a concentration of 10 μg/ml and the apoptosis was examined by Annexin-V staining.
Further, to confirm apoptosis induction in MM cell lines by DHMEQ, the MM cell lines, KMM1, RPMI8226, and U266, were incubated for 72 hours at a concentration of 10 μg/ml and the apoptosis was examined by observing nuclear condensation or fragmentation with a fluorescence microscope, using Hoechst staining.

[7] = tested on: cells of multiple myeloma (MM) patients; test: Hoechst staining apoptosis assay, cells of multiple myeloma patients; assay type: cell-based, human; details: 10 μg/ml, 72 hours
Method: Further, to investigate apoptosis induction of cells of multiple myeloma (MM) patients by DHMEQ, cells of multiple myeloma (MM) patients were incubated for 72 hours at a concentration of 10 μg/ml and the apoptosis was examined by observing nuclear condensation or fragmentation with a fluorescence microscope, using Hoechst staining.

NF-κB = NF-κB (Homo sapiens, UniProt P19838+Q04206); test: Gel shift assay (EMSA) of NF-κB activation in stimulated HUVECs; assay type: cell-based; parameters: endogenous in cells; host or cells: MCF-7 cells treated with TNF-α; details: DHMEQ 3 μg/ml, 2 h pretreatment
Chain of NF-κB (Q04206 whole entry): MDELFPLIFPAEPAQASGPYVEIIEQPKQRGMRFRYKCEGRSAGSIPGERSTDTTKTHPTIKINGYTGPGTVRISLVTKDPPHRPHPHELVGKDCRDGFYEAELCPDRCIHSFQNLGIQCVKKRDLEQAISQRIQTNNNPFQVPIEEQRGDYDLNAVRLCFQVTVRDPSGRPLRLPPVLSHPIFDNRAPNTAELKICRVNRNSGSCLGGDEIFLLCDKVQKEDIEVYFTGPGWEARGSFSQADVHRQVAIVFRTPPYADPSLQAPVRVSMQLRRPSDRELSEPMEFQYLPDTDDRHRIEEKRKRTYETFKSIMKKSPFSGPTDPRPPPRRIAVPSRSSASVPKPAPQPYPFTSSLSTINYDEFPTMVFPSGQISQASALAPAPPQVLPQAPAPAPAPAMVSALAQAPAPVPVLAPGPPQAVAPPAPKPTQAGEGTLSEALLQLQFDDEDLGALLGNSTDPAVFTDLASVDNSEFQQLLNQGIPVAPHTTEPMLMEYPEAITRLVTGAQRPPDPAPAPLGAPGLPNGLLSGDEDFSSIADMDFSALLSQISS
Chain of NF-κB (P19838 1-433 limits assumed): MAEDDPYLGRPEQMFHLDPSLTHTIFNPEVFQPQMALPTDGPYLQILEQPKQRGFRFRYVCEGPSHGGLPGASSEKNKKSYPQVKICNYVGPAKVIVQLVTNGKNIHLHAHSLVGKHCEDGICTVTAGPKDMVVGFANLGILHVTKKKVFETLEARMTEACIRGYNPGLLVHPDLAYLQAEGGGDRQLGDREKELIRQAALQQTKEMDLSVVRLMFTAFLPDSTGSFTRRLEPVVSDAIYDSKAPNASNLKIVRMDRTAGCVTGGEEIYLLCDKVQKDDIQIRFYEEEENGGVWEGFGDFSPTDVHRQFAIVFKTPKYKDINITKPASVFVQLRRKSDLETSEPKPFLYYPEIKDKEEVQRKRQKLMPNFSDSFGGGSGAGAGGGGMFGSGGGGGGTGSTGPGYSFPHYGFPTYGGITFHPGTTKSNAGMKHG
Excerpt: HUVECs were pretreated with DHMEQ as follows. […] Nuclear extract was thus obtained.

O=C(NC1=CC(=O)C2OC2C1O)c1ccccc1O (stereo not shown) [DHMEQ, 5,6-epoxy-4-hydroxy-3-salicyloylamino-2-cyclohexenone]
expression of ICAM-1, VCAM-1 and E-selectin [1]: markedly suppressed | adhesion of leukocytes and HL-60 cells to HUVECs [2]: markedly suppressed | cell proliferation, time course (MTT) ([3]; 10 μg/ml, 12, 24, 48, 72 hours, listed as DHM2EQ): hardly inhibited even after time had elapsed | cell proliferation, concentration dependence (MTT) ([3]; 2, 5, 10 μg/ml, 72 hours): hardly inhibited | apoptosis (nuclear fragmentation, Hoechst staining) [4]: apoptosis was induced | cell proliferation, concentration dependence [5]: inhibited in proportion to the DHM2EQ concentrations added | apoptosis (Annexin-V staining) ([6]; 10 μg/ml, 0, 24, 48 hours): apoptosis had been induced | apoptosis (Hoechst staining, nuclear fragmentation) ([6]; 10 μg/ml, 72 hours): images of nuclear fragmentation by DHMEQ treatment were observed | apoptosis (Hoechst staining) [7]: induces apoptosis | activation of NF-κB in HUVECs caused by TNF-α, IL-1β, and LPS (NF-κB): completely suppressed
